{"source": "patent US8188108B2", "about": "“Pharmaceutical composition” (priority 2002, dated 2012)", "key": {"clinical": {"assay": "clinical", "conditions": "both, human, in vivo; for AUC(0-t) / AUC(0-inf) / Cmax: po, Least-Squares Means (LSM); for AUC(0-inf): AUCinf"}, "[1]": {"conditions": "plasma, fed vs fasting, Lortab + Colace co-administered, ln-transformed"}, "[2]": {"conditions": "plasma, fed vs fasting, Lortab administered alone, ln-transformed"}, "[3]": {"conditions": "plasma, with docusate vs without, fasting, ln-transformed"}, "[4]": {"conditions": "plasma, with docusate vs without, fed, ln-transformed"}, "[5]": {"conditions": "Form A, plasma, Treatment A: one 10 mg/500 mg Lortab tablet + one 50 mg Colace capsule, single oral dose, fasting"}, "[6]": {"conditions": "Form A, plasma, Treatment A: Lortab 10 mg/500 mg + Colace 50 mg, single oral dose, fasting"}, "[7]": {"conditions": "Form B, plasma, Treatment B: Lortab 10 mg/500 mg alone, single oral dose, fasting"}, "[8]": {"conditions": "Form C, plasma, Treatment C: Lortab 10 mg/500 mg + Colace 50 mg, single oral dose, fed"}, "[9]": {"conditions": "Form D, plasma, Treatment D: Lortab 10 mg/500 mg alone, single oral dose, fed"}}, "note": "Like-named read-outs stand apart in the source and are kept apart here.", "data": [{"compound": "CC(=O)Nc1ccc(O)cc1", "note": "[Acetaminophen, acetaminophen]", "values": [{"measurement": "effect of food on Cmax (rate of exposure)", "setting": "fed vs fasting", "result": "lowering the Cmax"}, {"measurement": "AUC 0-t, Least-Squares Means (LSM), Form D", "setting": "plasma, Treatment D: one 10 mg/500 mg Lortab tablet alone, single oral dose, fed (30 min after start of standard breakfast)", "result": 19545.72, "unit": "ng·h/mL"}, {"measurement": "AUC 0-t, Ratio of LSM (C/A)", "setting": "[1]", "result": 93.5, "unit": "%"}, {"measurement": "AUCinf, Ratio of LSM (C/A)", "setting": "[1]", "result": 94.8, "unit": "%"}, {"measurement": "Cmax, Ratio of LSM (C/A)", "setting": "[1]", "result": 72.3, "unit": "%"}, {"measurement": "AUC 0-t, Ratio of LSM (D/B)", "setting": "[2]", "result": 94.3, "unit": "%"}, {"measurement": "AUCinf, Ratio of LSM (D/B)", "setting": "[2]", "result": 97.3, "unit": "%"}, {"measurement": "Cmax, Ratio of LSM (D/B)", "setting": "[2]", "result": 67.9, "unit": "%"}, {"measurement": "AUC 0-t, Ratio of LSM (A/B)", "setting": "[3]", "result": 101.4, "unit": "%"}, {"measurement": "AUCinf, Ratio of LSM (A/B)", "setting": "[3]", "result": 102.9, "unit": "%"}, {"measurement": "Cmax, Ratio of LSM (A/B)", "setting": "[3]", "result": 92.0, "unit": "%"}, {"measurement": "AUC 0-t, Ratio of LSM (C/D)", "setting": "[4]", "result": 100.5, "unit": "%"}, {"measurement": "AUCinf, Ratio of LSM (C/D)", "setting": "[4]", "result": 100.3, "unit": "%"}, {"measurement": "Cmax, Ratio of LSM (C/D)", "setting": "[4]", "result": 97.9, "unit": "%"}, {"measurement": "effect of docusate on the pharmacokinetics", "setting": "under fed and fasted conditions", "result": "no significant effect"}, {"measurement": "AUC(0-t)", "setting": "clinical; [5]", "result": 21000, "unit": "ng·h/mL"}, {"measurement": "AUC(0-t)", "setting": "clinical; Form B, plasma, Treatment B: one 10 mg/500 mg Lortab tablet alone, single oral dose, fasting", "result": 20700, "unit": "ng·h/mL"}, {"measurement": "AUC(0-inf)", "setting": "clinical; [6]", "result": 22700, "unit": "ng·h/mL"}, {"measurement": "AUC(0-inf)", "setting": "clinical; [7]", "result": 22000, "unit": "ng·h/mL"}, {"measurement": "AUC(0-inf)", "setting": "clinical; [8]", "result": 21500, "unit": "ng·h/mL"}, {"measurement": "AUC(0-inf)", "setting": "clinical; [9]", "result": 21400, "unit": "ng·h/mL"}, {"measurement": "Cmax", "setting": "clinical; [6]", "result": 5450, "unit": "ng/mL"}, {"measurement": "Cmax", "setting": "clinical; [7]", "result": 5920, "unit": "ng/mL"}, {"measurement": "Cmax", "setting": "clinical; [8]", "result": 3940, "unit": "ng/mL"}, {"measurement": "Cmax", "setting": "clinical; [9]", "result": 4020, "unit": "ng/mL"}]}, {"compound": "CCCCC(CC)COC(=O)CC(C(=O)OCC(CC)CCCC)S(=O)(=O)O", "note": "(stereo not shown) [Docusate, dioctyl sodium sulphosuccinate]", "values": [{"measurement": "absorption of docusate (measurable plasma concentrations)", "setting": "50 mg Colace capsule oral, throughout the period of blood sampling", "result": "absorbed in measurable amounts"}, {"measurement": "effect of food on Cmax (rate of exposure)", "setting": "fed vs fasting", "result": "not significantly affected by food"}, {"measurement": "AUC 0-t, Ratio of LSM (C/A)", "setting": "[1]", "result": 124.2, "unit": "%"}, {"measurement": "AUCinf, Ratio of LSM (C/A)", "setting": "[1]", "result": 128.8, "unit": "%"}, {"measurement": "Cmax, Ratio of LSM (C/A)", "setting": "[1]", "result": 104.4, "unit": "%"}, {"measurement": "Cmax, Ratio of LSM (C/A)", "setting": "plasma, fed vs fasting, Lortab + Colace co-administered, ln-transformed, listed as docusate", "result": 104.5, "unit": "%"}, {"measurement": "AUC(0-t)", "setting": "clinical; [5]", "result": 1170, "unit": "ng·h/mL"}, {"measurement": "AUC(0-inf)", "setting": "clinical; [6]", "result": 1170, "unit": "ng·h/mL"}, {"measurement": "AUC(0-inf)", "setting": "clinical; [8]", "result": 1510, "unit": "ng·h/mL"}, {"measurement": "Cmax", "setting": "clinical; [6]", "result": 608, "unit": "ng/mL"}, {"measurement": "Cmax", "setting": "clinical; [8]", "result": 635, "unit": "ng/mL"}]}, {"compound": "COc1ccc2c3c1O[C@H]1C(=O)CC[C@H]4[C@@H](C2)N(C)CC[C@]314", "note": "[Hydrocodone, hydrocodone]", "values": [{"measurement": "AUC 0-t, Ratio of LSM (A/B)", "setting": "both, human, in vivo", "result": 102.5, "unit": "%"}, {"measurement": "AUC 0-t, Ratio of LSM (C/A)", "setting": "both, human, in vivo", "result": 105.0, "unit": "%"}, {"measurement": "AUC 0-t, Ratio of LSM (C/D)", "setting": "both, human, in vivo", "result": 97.4, "unit": "%"}, {"measurement": "AUC 0-t, Ratio of LSM (D/B)", "setting": "both, human, in vivo", "result": 110.6, "unit": "%"}, {"measurement": "AUCinf, Ratio of LSM (A/B)", "setting": "both, human, in vivo", "result": 107.2, "unit": "%"}, {"measurement": "AUCinf, Ratio of LSM (C/A)", "setting": "both, human, in vivo", "result": 105.0, "unit": "%"}, {"measurement": "AUCinf, Ratio of LSM (C/D)", "setting": "both, human, in vivo", "result": 97.4, "unit": "%"}, {"measurement": "AUCinf, Ratio of LSM (D/B)", "setting": "both, human, in vivo", "result": 115.6, "unit": "%"}, {"measurement": "Cmax, Ratio of LSM (A/B)", "setting": "both, human, in vivo", "result": 100.2, "unit": "%"}, {"measurement": "Cmax, Ratio of LSM (C/A)", "setting": "both, human, in vivo", "result": 91.7, "unit": "%"}, {"measurement": "Cmax, Ratio of LSM (C/D)", "setting": "both, human, in vivo", "result": 97.0, "unit": "%"}, {"measurement": "Cmax, Ratio of LSM (D/B)", "setting": "both, human, in vivo", "result": 94.6, "unit": "%"}, {"measurement": "effect of docusate on the pharmacokinetics", "setting": "in vivo", "result": "no significant effect"}, {"measurement": "effect of food on Cmax (rate of exposure)", "setting": "in vivo", "result": "no significant effect"}, {"measurement": "effect of food on extent of exposure (AUC)", "setting": "in vivo", "result": "no significant effect"}, {"measurement": "Tmax", "setting": "clinical", "result": "~1", "unit": "h"}, {"measurement": "AUC(0-t)", "setting": "clinical; Form A", "result": 135, "unit": "ng·h/mL"}, {"measurement": "AUC(0-t)", "setting": "clinical; Form B", "result": 132, "unit": "ng·h/mL"}, {"measurement": "AUC(0-t)", "setting": "clinical; Form C", "result": 142, "unit": "ng·h/mL"}, {"measurement": "AUC(0-t)", "setting": "clinical; Form D", "result": 146, "unit": "ng·h/mL"}, {"measurement": "AUC(0-inf)", "setting": "clinical; Form A", "result": 162, "unit": "ng·h/mL"}, {"measurement": "AUC(0-inf)", "setting": "clinical; Form B", "result": 151, "unit": "ng·h/mL"}, {"measurement": "AUC(0-inf)", "setting": "clinical; Form C", "result": 170, "unit": "ng·h/mL"}, {"measurement": "AUC(0-inf)", "setting": "clinical; Form D", "result": 175, "unit": "ng·h/mL"}, {"measurement": "Cmax", "setting": "clinical; Form A", "result": 24.3, "unit": "ng/mL"}, {"measurement": "Cmax", "setting": "clinical; Form B", "result": 24.2, "unit": "ng/mL"}, {"measurement": "Cmax", "setting": "clinical; Form C", "result": 22.3, "unit": "ng/mL"}, {"measurement": "Cmax", "setting": "clinical; Form D", "result": 22.9, "unit": "ng/mL"}]}]}
